Some results are limits rather than exact numbers.

In assay [1] the target is recombinant human full-length Bruton Agammaglobulinemia Tyrosine Kinase (Btk) (Homo sapiens (Human), UniProt Q06187). The assay is described as follows: Btk Kinase Inhibition Assay (fluorescence polarization). The assay is classed as biochemical. Conditions: 10 μM ATP, 250 μM substrate, 60 minutes; Ki calculated from IC50 using the Cheng-Prusoff equation. The protocol:
Kinase Binding Btk Kinase Inhibition Assay
Fluorescence polarization-based kinase assays were performed in 384 well-plate format using histidine tagged recombinant human full-length Bruton Agammaglobulinemia Tyrosine Kinase (Btk) and a modified protocol of the KinEASE™ FP Fluorescein Green Assay supplied from Millipore. Kinase reaction were performed at room temperature for 60 minutes in presence of 250 μM substrate, 10 μM ATP and variable test article concentrations. The reaction was stopped with EDTA/kinase detection reagents and the polarization measured on a Tecan 500 instrument. From the dose-response curve obtained, the IC50 was calculated using Graph Pad Prisms® using a non linear fit curve. The Km for ATP on each enzyme was experimentally determined and the Ki values calculated using the Cheng-Prusoff equation (see: Cheng Y, Prusoff W H. (1973) Relationship between the inhibition constant (K1) and the concentration of inhibitor which causes 50 percent inhibition (I50) of an enzymatic reaction”. Biochem Pharmacol 22 (23): 3099-108).

Assay [2] has as its system Splenocytes (B cell proliferation stimulated with anti-IgM F(ab′)2). The assay is described as follows: Splenic Cell Proliferation Assay. Conditions: Mus musculus, Splenocyte, 72 h, CD1 mouse splenocytes, 2.5 ug/ml anti-IgM F(ab′)2 for 72 h, Cell Titer-Glo; read-out: EC50 (nM), Inhibition of splenic cell proliferation. The assay is classed as cell-based. On the procedure: Splenic Cell Proliferation Assay
Splenocytes were obtained from 6 week old male CD1 mice (Charles River Laboratories Inc.). Mouse spleens were manually disrupted in PBS and filtered using a 70 um cell strainer followed by ammonium chloride red blood cell lysis. Cells were washed, resuspended in Splenocyte Medium (HyClone RPMI supplemented with 10% heat-inactivated FBS, 0.5× non-essential amino acids, 10 mM HEPES, 50 uM beta mercaptoethanol) and incubated at 37° C., 5% CO2 for 2 h to remove adherent cells. Suspension cells were seeded in 96 well plates at 50,000 cells per well and incubated at 37° C., 5% CO2 for 1 h. Splenocytes were pre-treated in triplicate with 10,000 nM curves of Formula 1 compounds for 1 h, followed by stimulation of B cell proliferation with 2.5 ug/ml anti-IgM F(ab′)2 (Jackson ImmunoResearch) for 72 h. Cell proliferation was measured by Cell Titer-Glo Luminescent Assay (Promega). EC50 values (50% proliferation in the presence of compound as compared to vehicle treated controls) were calculated from dose response compound curves using GraphPad Prism Software.
On the technique in general: Cellular ATP, detected with luciferase, serves as a proxy for viable cell number.

Sequence of recombinant human full-length Bruton Agammaglobulinemia Tyrosine Kinase (Btk) (Q06187 whole entry): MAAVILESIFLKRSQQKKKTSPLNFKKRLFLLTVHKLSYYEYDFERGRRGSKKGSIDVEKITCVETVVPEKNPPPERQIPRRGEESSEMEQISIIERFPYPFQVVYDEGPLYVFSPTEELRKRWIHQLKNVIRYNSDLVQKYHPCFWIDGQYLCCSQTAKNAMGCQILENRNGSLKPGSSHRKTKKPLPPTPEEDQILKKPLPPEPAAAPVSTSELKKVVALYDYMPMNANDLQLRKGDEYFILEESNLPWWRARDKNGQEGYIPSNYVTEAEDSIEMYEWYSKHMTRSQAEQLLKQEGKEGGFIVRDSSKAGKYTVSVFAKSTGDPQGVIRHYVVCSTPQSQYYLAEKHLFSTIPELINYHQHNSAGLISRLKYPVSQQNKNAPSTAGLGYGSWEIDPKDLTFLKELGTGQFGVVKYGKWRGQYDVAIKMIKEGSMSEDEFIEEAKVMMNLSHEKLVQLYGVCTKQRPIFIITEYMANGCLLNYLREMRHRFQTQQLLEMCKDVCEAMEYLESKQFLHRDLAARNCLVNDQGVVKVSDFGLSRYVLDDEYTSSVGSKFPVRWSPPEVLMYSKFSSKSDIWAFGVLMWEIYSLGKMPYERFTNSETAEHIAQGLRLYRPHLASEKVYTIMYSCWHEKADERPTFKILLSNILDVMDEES

The term Ki denotes the dissociation constant of the complex between target and ligand, obtained from inhibition or displacement. Take `Nc1ncnc2[nH]nc(-c3ccc(Oc4cccc(OCc5ccccc5)c4)cc3)c12` [Compound 1]: the Ki in assay [1] was less than 100 nM. For the same molecule, the EC50 in assay [2] lay in the range of 100 to 1000 nM.

Consider `Cc1ncc(COc2cc(F)cc(Oc3ccc(-c4nn(CCO)c5ncnc(N)c45)cc3)c2)cn1` [Compound 110], for which, in assay [1], the Ki is less than 100 nM. For the same molecule, in assay [2], the EC50 is 100 to 1000 nM.

Consider `C=CC(=O)N1CCC[C@@H](n2nc(-c3ccc(Oc4cccc(OCc5ccccc5)c4)cc3)c3c(N)ncnc32)C1` [Compound 5], for which the Ki in assay [1] is less than 100 nM. The EC50 in assay [2] is less than 100 nM.

For `Cc1ccc(COc2cc(F)cc(Oc3ccc(-c4nn(C5CCOCC5)c5ncnc(N)c45)cc3)c2)c[n+]1[O-]` [Compound 91], the Ki in assay [1] is less than 100 nM. Besides, the EC50 in assay [2] was less than 100 nM.

For the molecule `Nc1ncnc2c1c(-c1ccc(Oc3cc(F)cc(OCc4cncnc4)c3)cc1)nn2C1CCOCC1` [Compound 68], in assay [1], the Ki was less than 100 nM. Further, in assay [2], the EC50 was less than 100 nM.

For `Nc1ncnc2c1c(-c1ccc(Oc3cccc(OCc4cncs4)c3)cc1)nn2C1CCNCC1` [Compound 43], the Ki in assay [1] was less than 100 nM. In addition, in assay [2], the EC50 is 100 to 1000 nM.

With `CC(C)(C)OC(=O)N1CCCC(n2nc(-c3ccc(Oc4cccc(OCc5cncs5)c4)cc3)c3c(N)ncnc32)C1` (stereo not drawn) [Compound 49], the Ki in assay [1] is less than 100 nM. Besides, in assay [2], the EC50 was less than 100 nM.

With `Cn1nc(-c2ccc(Oc3cccc(COc4ccccc4C#N)c3)cc2)c2c(N)ncnc21` [Compound 17], the Ki in assay [1] was less than 100 nM. The EC50 in assay [2] is 100 to 1000 nM.

As for `Nc1ncnc2c1c(-c1ccc(Oc3cccc(OCc4ccccc4C(F)(F)F)c3)cc1)nn2C1CCOCC1` [Compound 23], in assay [1], the Ki was less than 100 nM. The EC50 in assay [2] was less than 100 nM.

As for `Cc1ncc(COc2cc(F)cc(Oc3ccc(-c4nn(CC(C)(C)O)c5ncnc(N)c45)cc3)c2)cn1` [Compound 122], in assay [1], the Ki is less than 100 nM. For the same molecule, the EC50 in assay [2] was in the range of 100 to 1000 nM.

Take `Cc1ncc(COc2cc(F)cc(Oc3ccc(-c4nn(CC5(C)COC5)c5ncnc(N)c45)cc3)c2)cn1` [Compound 119]: the Ki in assay [1] was less than 100 nM. Further, in assay [2], the EC50 lay within 100 to 1000 nM.

Regarding `Nc1ncnc2c1c(-c1ccc(Oc3cccc(OCc4ccccc4C(F)(F)F)c3)cc1)nn2C1CCCC1` [Compound 29], in assay [1], the Ki was less than 100 nM. Also, the EC50 in assay [2] was less than 100 nM.

Consider `Cn1cncc1COc1cccc(Oc2ccc(-c3nn(C4CCOCC4)c4ncnc(N)c34)cc2)c1` [Compound 48], for which, in assay [1], the Ki was less than 100 nM. Also, the EC50 in assay [2] was less than 100 nM.

As to `CCCC(=O)N1CCC[C@@H](n2nc(-c3ccc(Oc4cccc(OCc5ccccc5)c4)cc3)c3c(N)ncnc32)C1` [Compound 7], the Ki in assay [1] is less than 100 nM. Further, the EC50 in assay [2] was 100 to 1000 nM.

As to `CC(C)(C)OC(=O)N1CCC[C@@H](n2nc(-c3ccc(Oc4cccc(OCc5ccccc5)c4)cc3)c3c(N)ncnc32)C1` [Compound 3], the inhibition constant Ki in assay [1] is less than 100 nM. Besides, the EC50 in assay [2] was in the range of 100 to 1000 nM.

As for `N#Cc1ccccc1COc1cccc(Oc2ccc(-c3nn(C4CCCC4)c4ncnc(N)c34)cc2)c1` [Compound 12], the Ki in assay [1] was less than 100 nM. Also, the EC50 in assay [2] lay in the range of 100 to 1000 nM.

Consider `Cc1ncc(COc2cc(F)cc(Oc3ccc(-c4nn(C(CO)CCl)c5ncnc(N)c45)cc3)c2)s1` (stereo not drawn) [Compound 109], for which, in assay [1], the Ki is less than 100 nM. The EC50 in assay [2] is less than 100 nM.

On to `Nc1ncnc2c1c(-c1ccc(Oc3cccc(COc4ccccc4)c3)cc1)nn2C1CCCC1` [Compound 13], for which, in assay [1], the Ki was less than 100 nM. Moreover, in assay [2], the EC50 was less than 100 nM.

Turning to `Cn1cncc1COc1cc(F)cc(Oc2ccc(-c3nn(CCCO)c4ncnc(N)c34)cc2)c1` [Compound 116], the Ki in assay [1] was less than 100 nM. Besides, the EC50 in assay [2] was less than 100 nM.

With `Cc1ncc(COc2cc(F)cc(Oc3ccc(-c4nn(C(CO)CO)c5ncnc(N)c45)cc3)c2)cn1` [Compound 130], in assay [1], the Ki is less than 100 nM. For the same molecule, in assay [2], the EC50 lay in the range of 100 to 1000 nM.

As for `Cc1ccc(COc2cc(F)cc(Oc3ccc(-c4nn(C5CCOCC5)c5ncnc(N)c45)cc3)c2)cn1` [Compound 65], in assay [1], the Ki is less than 100 nM. In addition, in assay [2], the EC50 is less than 100 nM.

As for `Cn1cncc1COc1cc(F)cc(Oc2ccc(-c3nn(C4CCOCC4)c4ncnc(N)c34)c(F)c2)c1` [Compound 73], the inhibition constant Ki in assay [1] is less than 100 nM. Further, the EC50 in assay [2] was less than 100 nM.

Turning to `Cn1nc(-c2ccc(Oc3cccc(OCc4ccccc4)c3)cc2)c2c(N)ncnc21` [Compound 16], the Ki in assay [1] was less than 100 nM. In assay [2], the EC50 fell in the range of 100 to 1000 nM.

In the case of `Cc1ncc(COc2cc(F)cc(Oc3ccc(-c4nn(C5CCOCC5)c5ncnc(N)c45)c(F)c3)c2)s1` [Compound 60], the Ki in assay [1] was less than 100 nM. Besides, the EC50 in assay [2] was less than 100 nM.

Take `Cn1nc(-c2ccc(Oc3cccc(COc4ccccc4C(F)(F)F)c3)cc2)c2c(N)ncnc21` [Compound 31]: the Ki in assay [1] is less than 100 nM. For the same molecule, the EC50 in assay [2] was 100 to 1000 nM.

Consider `Cc1ncc(COc2cc(F)cc(Oc3ccc(-c4nn(C5CCOCC5)c5ncnc(N)c45)cc3)c2)[nH]1` [Compound 118], for which the Ki in assay [1] was less than 100 nM. Moreover, in assay [2], the EC50 lay within 100 to 1000 nM.

`Cc1ccc(COc2cc(F)cc(Oc3ccc(-c4nn(CCO)c5ncnc(N)c45)cc3)c2)cn1` [Compound 88]: the Ki in assay [1] was less than 100 nM. Also, the EC50 in assay [2] was less than 100 nM.

Regarding `N#Cc1ccccc1COc1cccc(Oc2ccc(-c3nn(C4CCOCC4)c4ncnc(N)c34)cc2)c1` [Compound 35], in assay [1], the Ki is less than 100 nM. Also, in assay [2], the EC50 was less than 100 nM.

Turning to `Cc1ncc(COc2cccc(Oc3ccc(-c4nn(C5CCCC5)c5ncnc(N)c45)cc3)c2)s1` [Compound 37], in assay [1], the Ki is less than 100 nM. The EC50 in assay [2] is less than 100 nM.

As for `Nc1ncnc2c1c(-c1ccc(Oc3cc(F)cc(OCc4ccc(CO)nc4)c3)cc1)nn2C1CCOCC1` [Compound 101], in assay [1], the Ki was less than 100 nM. Moreover, the EC50 in assay [2] was less than 100 nM.

Turning to `COc1ccc(COc2cccc(Oc3ccc(-c4nn(C5CCCC5)c5ncnc(N)c45)cc3)c2)cc1` [Compound 11], in assay [1], the Ki was less than 100 nM. Also, the EC50 in assay [2] is 100 to 1000 nM.

For the molecule `Cn1cncc1CCc1cc(F)cc(Oc2ccc(-c3nn(C4CCOCC4)c4ncnc(N)c34)cc2)c1` [Compound 67], the Ki in assay [1] was less than 100 nM. In addition, the EC50 in assay [2] lay within 100 to 1000 nM.

With `CC(C)n1nc(-c2ccc(Oc3cc(F)cc(OCc4ccc(CO)nc4)c3)cc2)c2c(N)ncnc21` [Compound 128], in assay [1], the Ki was less than 100 nM. Moreover, the EC50 in assay [2] was less than 100 nM.

As to `Cc1ncc(COc2cc(F)cc(Oc3ccc(-c4nn(CCN5CCOCC5)c5ncnc(N)c45)cc3)c2)s1` [Compound 52], the Ki in assay [1] is less than 100 nM. Further, the EC50 in assay [2] is less than 100 nM.

`Cc1ncc(COc2cccc(Oc3ccc(-c4nn(C5CCOCC5)c5ncnc(N)c45)cc3)c2)s1` [Compound 38]: the Ki in assay [1] is less than 100 nM. Besides, the EC50 in assay [2] was less than 100 nM.

In the case of `Cc1ncc(COc2cc(F)cc(Oc3ccc(-c4nn(CC5(C)COC5)c5ncnc(N)c45)cc3)c2)n1C` [Compound 124], the Ki in assay [1] is less than 100 nM. The EC50 in assay [2] was 100 to 1000 nM.

As for `Cn1nc(-c2ccc(Oc3cccc(OCc4cncs4)c3)cc2)c2c(N)ncnc21` [Compound 19], the Ki in assay [1] was less than 100 nM. Further, in assay [2], the EC50 was 100 to 1000 nM.

As for `CC(=O)N1CCC[C@@H](n2nc(-c3ccc(Oc4cccc(COc5ccccc5C(F)(F)F)c4)cc3)c3c(N)ncnc32)C1` [Compound 33], in assay [1], the Ki was less than 100 nM. Further, in assay [2], the EC50 was less than 100 nM.

As to `Nc1ncnc2c1c(-c1ccc(Oc3cc(F)cc(CCc4ccccc4)c3)cc1)nn2C1CCOCC1` [Compound 66], in assay [1], the Ki is less than 100 nM. In addition, in assay [2], the EC50 fell in the range of 100 to 1000 nM.

With `Cc1ncc(COc2cc(F)cc(Oc3ccc(-c4nn(CCO)c5ncnc(N)c45)cc3)c2)n1C` [Compound 115], the Ki in assay [1] is less than 100 nM. The EC50 in assay [2] fell in the range of 100 to 1000 nM.

For `Nc1ncnc2c1c(-c1ccc(Oc3cc(F)cc(OCc4cncn4Cc4ccccc4)c3)cc1)nn2C1CCOCC1` [Compound 76], the inhibition constant (Ki) in assay [1] was less than 100 nM. For the same molecule, the EC50 in assay [2] is 100 to 1000 nM.

Regarding `CC(C)n1nc(-c2ccc(Oc3cc(F)cc(OCc4cncn4C)c3)cc2F)c2c(N)ncnc21` [Compound 98], in assay [1], the inhibition constant Ki is less than 100 nM. For the same molecule, the EC50 in assay [2] is less than 100 nM.

For the molecule `COc1cccc(COc2cccc(Oc3ccc(-c4nn(C5CCCC5)c5ncnc(N)c45)cc3)c2)c1` [Compound 10], the inhibitory constant (Ki) in assay [1] is less than 100 nM. Besides, in assay [2], the EC50 was 100 to 1000 nM.

On to `Cn1cncc1COc1cc(F)cc(Oc2ccc(-c3nn(CCO)c4ncnc(N)c34)c(F)c2)c1` [Compound 105], for which the Ki in assay [1] is less than 100 nM. Moreover, the EC50 in assay [2] was in the range of 100 to 1000 nM.

On to `CC(=O)N1CCC[C@@H](n2nc(-c3ccc(Oc4cccc(OCc5ccccc5)c4)cc3)c3c(N)ncnc32)C1` [Compound 6], for which the Ki in assay [1] was less than 100 nM. Moreover, in assay [2], the EC50 was less than 100 nM.

Values taken from patent publication US9796716B2, “Selective inhibitors of Tec and Src protein kinase families” (Pharmascience, Inc., priority 2012, dated 2017).
